Source: PubChem BioAssay (NCI)
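At the GI50, growth is halved. At the TGI there is no net growth.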

How the values were obtained:
Test in all cases: NCI-60 cell line screen, 384-well format
BT-549 breast = system: BT-549 breast
K-562 leukemia = system: K-562 leukemia
KM12 colon = system: KM12 colon
MALME-3M melanoma = system: MALME-3M melanoma
MDA-MB-231 breast = system: MDA-MB-231 breast
NCI-H460 NSCLC = system: NCI-H460 NSCLC
OVCAR-4 ovarian = system: OVCAR-4 ovarian
RXF 393 renal = system: RXF 393 renal
SF-268 CNS = system: SF-268 CNS
SNB-19 CNS = system: SNB-19 CNS
SNB-75 CNS = system: SNB-75 CNS
SR leukemia = system: SR leukemia
UACC-62 melanoma = system: UACC-62 melanoma

Structure (SMILES) | GI50 (BT-549 breast) [nM] | TGI (BT-549 breast) [nM] | GI50 (K-562 leukemia) [nM] | TGI (K-562 leukemia) [nM] | GI50 (KM12 colon) [nM] | TGI (KM12 colon) [nM] | GI50 (MALME-3M melanoma) [nM] | TGI (MALME-3M melanoma) [nM] | GI50 (MDA-MB-231 breast) [nM] | TGI (MDA-MB-231 breast) [nM] | GI50 (NCI-H460 NSCLC) [nM] | TGI (NCI-H460 NSCLC) [nM] | GI50 (OVCAR-4 ovarian) [nM] | TGI (OVCAR-4 ovarian) [nM] | GI50 (RXF 393 renal) [nM] | TGI (RXF 393 renal) [nM] | GI50 (SF-268 CNS) [nM] | TGI (SF-268 CNS) [nM] | GI50 (SNB-19 CNS) [nM] | TGI (SNB-19 CNS) [nM] | further results
Cc1cc2c(cc1C)NC1=C(N2)OC(c2c3ccccc3cc3ccccc23)C1=O (configuration not stated) | 270 | 581 | 208 | 491 | 310 | 964 | 334 | 1100 | 554 | 2810 | 260 | 654 | 377 | 1970 | 285 | 513 | 354 | 1050 | 397 | 1540 | GI50 (SNB-75 CNS): 381 nM; TGI (SNB-75 CNS): 1230 nM; GI50 (SR leukemia): 189 nM; TGI (SR leukemia): 340 nM; GI50 (UACC-62 melanoma): 329 nM; TGI (UACC-62 melanoma): 1250 nM
O=C(O)c1ccc(CN2CCC(CN[C@@H]3C[C@H]3c3ccccc3)CC2)cc1 | > 100000 | > 100000 | > 100000 | > 100000 | > 100000 | > 100000 | > 100000 | > 100000 | > 100000 | > 100000 | > 100000 | > 100000 | > 100000 | > 100000 | > 100000 | > 100000 | > 100000 | > 100000 | > 100000 | > 100000 | GI50 (SNB-75 CNS): > 100000 nM; TGI (SNB-75 CNS): > 100000 nM; GI50 (SR leukemia): > 100000 nM; TGI (SR leukemia): > 100000 nM; GI50 (UACC-62 melanoma): > 100000 nM; TGI (UACC-62 melanoma): > 100000 nM
